# Active and inactive are the calls of the source. The rule behind the calls is not given here.
# Target: Serine/threonine-protein kinase mTOR (Homo sapiens) (UniProt P42345)
# Assay: mTOR FRB domain ligand binding – biophysical, NMR (AID 1648)
# Conditions: NMR binding to FRB domain, chemical shift
# Sequence of Serine/threonine-protein kinase mTOR (Homo sapiens) (P42345 2015-2114): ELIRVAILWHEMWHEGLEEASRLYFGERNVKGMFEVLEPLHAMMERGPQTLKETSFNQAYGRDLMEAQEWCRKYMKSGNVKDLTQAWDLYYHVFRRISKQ
row,Structure (SMILES),Kd
1,O=C(Nc1ccccc1)c1cnc2n(c1=O)CCS2,> 4 mM (inactive)
2,CCN(CC)c1nc2n(c(=O)n1)CCO2,> 4 mM (inactive)
3,C=C1C2CC[C@H]3[C@]4(C)C[C@H](OC5OC(CO)C(OS(=O)(=O)O)C(OS(=O)(=O)O)C5OC(=O)CC(C)C)C[C@@H](C(=O)O)[C@H]4CC[C@]3(C2)[C@H]1O (stereo not given in full),> 4 mM (inactive)
4,Cc1ccnc(NS(=O)(=O)c2ccccc2)n1,> 4 mM (inactive)
5,OCc1ccc(-c2cccs2)s1,> 4 mM (inactive)
6,O=C(C1CCNCC1)N1CCCCCC1,> 4 mM (inactive)
7,COc1ccccc1-c1nc(-c2ccc(C)nc2OC)no1,> 4 mM (inactive)
8,Nc1cccc2nonc12,> 4 mM (inactive)
9,O=C(Nc1ccon1)c1cc2c(s1)CCCC2,> 4 mM (inactive)
10,OCCNC(=S)Nc1ccc(F)cc1,> 4 mM (inactive)
11,C=C1C(=O)O[C@@H]2C3OC3(C)CC/C=C(\C)CC[C@@H]12 (stereo not given in full),> 4 mM (inactive)
12,C[C@H](CCC(=O)O)[C@H]1CCC2C3C(CC[C@@]21C)[C@@]1(C)CC[C@@H](O)C[C@H]1C[C@@H]3O (stereo not given in full),> 4 mM (inactive)
13,Cc1noc(C)c1CSc1nc2ccccc2[nH]1,> 4 mM (inactive)
14,O=c1c(Cl)c(NCCO)ncn1-c1ccccc1,> 4 mM (inactive)
15,Nc1ccccc1C(=O)N1CCOCC1,> 4 mM (inactive)
16,O=C1NC(=S)N/C1=C/c1ccc(O)c(Cl)c1,> 4 mM (inactive)
17,Cn1cnc2ccc([N+](=O)[O-])cc2c1=O,> 4 mM (inactive)
18,NC(=O)c1cc(Cl)c(C(N)=O)cc1Cl,> 4 mM (inactive)
19,Cn1c(=O)n(CC(=O)N2CCOCC2)c2ccccc21,> 4 mM (inactive)
20,O=C(O)CCCNC(=O)c1ccccc1C(=O)O,> 4 mM (inactive)
21,Oc1ccccc1N1CCCC1,> 4 mM (inactive)
22,COc1ccc2c3c([nH]c2c1)C(C)=NCC3,> 4 mM (inactive)
23,CC(C)[C@@H]1CC[C@@H](C)CC1=O,> 4 mM (inactive)
24,OCc1ccc2nsnc2c1,> 4 mM (inactive)

row,Structure (SMILES),Kd
1,CC(=O)NC(O)C(=O)c1ccccc1 (stereo not given),> 4 mM (inactive)
2,CC1=CC2C(CC1=O)C(C)=CCC2C(C)C (stereo not given),> 4 mM (inactive)
3,CN(C)S(=O)(=O)c1cccc(N)c1,> 4 mM (inactive)
4,O=C(c1ccco1)N1CCNCC1,> 4 mM (inactive)
5,CC(=O)Nc1nc(-c2cccs2)cs1,> 4 mM (inactive)
6,Cc1nc(-c2cccc(C(=O)O)c2)cs1,> 4 mM (inactive)
7,Cn1cnc2nc3n(c2c1=O)CCC3,> 4 mM (inactive)
8,COc1ccc(S(=O)(=O)N2CCOCC2)cc1C(C)C,> 4 mM (inactive)
9,O=C(CSc1ccnc(=O)[nH]1)NCc1ccco1,> 4 mM (inactive)
10,Nc1cccnc1Oc1ccc(F)cc1F,> 4 mM (inactive)
11,O=C(CC1NC(=O)NC1=O)Nc1ccccc1 (stereo not given),> 4 mM (inactive)
12,Nc1cc(F)cc(F)c1,> 4 mM (inactive)
13,O=c1oc2ccccc2cc1O,> 4 mM (inactive)
14,Nc1ccc(Oc2ccccc2)nc1,> 4 mM (inactive)
15,CC(=O)Nc1ccc(S(=O)(=O)NC(N)=O)cc1,> 4 mM (inactive)
16,CCC(C)OC1CCS(=O)(=O)C1 (stereo not given),> 4 mM (inactive)
17,CC[C@]12CCCN3CCc4c(n(c5ccccc45)[C@](O)(C(=O)OC)C1)[C@@H]32,> 4 mM (inactive)
18,NC(=O)Cn1nnc(-c2ccc(C(F)(F)F)cc2)n1,> 4 mM (inactive)
19,COc1ccc(Cc2nnc3c4cnn(C)c4ncn23)cc1,> 4 mM (inactive)
20,Cc1cc(NC(=O)c2ccccc2C(=O)O)no1,> 4 mM (inactive)
21,Nc1ccc(-n2cccn2)cc1,> 4 mM (inactive)
22,CN1CCn2c1nc(N1CCCCC1)nc2=O,> 4 mM (inactive)
23,CC1(C)C(=O)[C@@H]2C[C@@]3(O)C4=CC(=O)O[C@@H](c5ccoc5)[C@]4(C)CCC3C(C)(C2=O)[C@H]1CC(=O)O (stereo not given in full),> 4 mM (inactive)
24,Oc1cnc2ccccc2c1CN1CCOCC1,> 4 mM (inactive)

row,Structure (SMILES),Kd
1,Clc1ccc(-c2noc(CN3CCCC3)n2)cc1,> 4 mM (inactive)
2,N#CCSc1nnc2ccc3ccccc3n12,> 4 mM (inactive)
3,CC(=O)N1CCC(NC2CCCCCC2)CC1,> 4 mM (inactive)
4,CCOc1ccc(C)cc1S(=O)(=O)n1ccc(C)n1,> 4 mM (inactive)
5,O=C1Nc2ccc(S(=O)(=O)NCCO)c3cccc1c23,> 4 mM (inactive)
6,Nc1ccc(C(=O)NCC2CCCO2)cc1 (stereo not given),> 4 mM (inactive)
7,C[C@@H]1OC(O[C@H]2C(O[C@H]3CC[C@@]4(C)C(CC[C@]5(C)C4CC=C4C6CC(C)(C)CC[C@]6(C(=O)O)CC[C@]45C)[C@]3(C)CO)OC[C@H](O)[C@@H]2O)[C@H](O)[C@H](O)[C@H]1O (stereo not given in full),> 4 mM (inactive)
8,O=c1[nH]cc(S(=O)(=O)Nc2ccccc2)c(=O)[nH]1,> 4 mM (inactive)
9,O=C(NCc1ccco1)c1ccc(=O)[nH]c1,> 4 mM (inactive)
10,C=CCNC(=O)c1nn2cccnc2c1Cl,> 4 mM (inactive)
11,O=C(O)C1CC(=O)N(Cc2ccco2)C1 (stereo not given),> 4 mM (inactive)
12,Cc1cc(O)c(C)c(O)c1C(=O)O,> 4 mM (inactive)
13,Cc1cc(C)nc(/N=C(/N)N2CCOCC2)n1,> 4 mM (inactive)
14,O=c1[nH]cc(N2CCCCC2)c(=O)[nH]1,> 4 mM (inactive)
15,Cc1ccc2nc(SCCC#N)nc(C)c2c1,> 4 mM (inactive)
16,Cc1cc(=O)cc(C)n1-c1ccccc1N,> 4 mM (inactive)
17,CCn1cnc2scc(-c3ccccc3)c2c1=O,> 4 mM (inactive)
18,O=c1c2ccccc2nc(-c2ccco2)n1-c1nccs1,> 4 mM (inactive)
19,C[n+]1ccc(C(=O)[O-])cc1,> 4 mM (inactive)
20,Cc1cc(SCC(=O)c2ccccc2)nc(=O)[nH]1,> 4 mM (inactive)
21,C=C[C@@](C)(O)CCC1C(=C)C[C@H](OC(C)=O)C2C(C)(C)CCCC12C (stereo not given in full),> 4 mM (inactive)
22,O=C(O)c1cccc2c1OCCO2,> 4 mM (inactive)
23,COC(=O)CSc1n[nH]c(N)n1,> 4 mM (inactive)
24,c1cc(C(N2CCOCC2)N2CCOCC2)ccn1,> 4 mM (inactive)

row,Structure (SMILES),Kd
1,Cc1ccc(C(=O)NCCO)c(Cl)c1,> 4 mM (inactive)
2,NC(=O)Cn1cnc(-c2ccc(F)cc2)c1,> 4 mM (inactive)
3,Cc1c(-c2ccccc2)[n+](=O)c(-c2ccco2)c(C)n1[O-],> 4 mM (inactive)
4,S=C(NCC1CCCO1)NC1CC1 (stereo not given),> 4 mM (inactive)
5,NC1=NN(c2ccccc2)C(=O)C1,> 4 mM (inactive)
6,O=C(CSc1ccccc1)N1CCC2(CC1)OCCO2,> 4 mM (inactive)
7,Nc1nc(N)nc(N2C(=O)c3ccccc3C2=O)n1,> 4 mM (inactive)
8,O=C(c1ccccc1F)N1CCN(c2ccccc2)CC1,> 4 mM (inactive)
9,c1ccc2[nH]c(CCn3cncn3)nc2c1,> 4 mM (inactive)
10,CSc1nc(NC(C)C)nc(N2CCOCC2)n1,> 4 mM (inactive)
11,Cn1c(=O)n(C)c2cc(C(N)=O)ccc21,> 4 mM (inactive)
12,Cc1ccc(-c2nn3c(C)nnc3s2)cc1N,> 4 mM (inactive)
13,COc1cc(OC)c(-c2nc3cnccc3n2C)cc1OC,> 4 mM (inactive)
14,O=C1NC(=O)C(c2ccccc2)C(=O)N1,> 4 mM (inactive)
15,O=C(O[C@@H]1Cc2c(O)cc(O)cc2O[C@@H]1c1cc(=O)c(O)c2c(O)c(O)cc([C@H]3Oc4cc(O)cc(O)c4C[C@H]3O)c2c1)c1cc(O)c(O)c(O)c1,> 4 mM (inactive)
16,COc1ccc2c(c1)[n+](=O)c(C(C)=O)c(C)n2[O-],> 4 mM (inactive)
17,COc1ccc(/C=C2\NC(=S)N(C)C2=O)cc1O,> 4 mM (inactive)
18,Cn1c(=O)[nH]c(=O)c2c1ncn2CCN1CCCCC1,> 4 mM (inactive)
19,Cc1c(C)[n+]([O-])c(-c2ccc([N+](=O)[O-])cc2)n1O,> 4 mM (inactive)
20,c1csc(-c2nnc3ccccn23)c1,> 4 mM (inactive)
21,[O-][n+]1onc2c1CCc1c-2nc(-c2ccccc2)n1O,> 4 mM (inactive)
22,CC(=O)Nc1nc(C)nc(-c2ccccc2)c1C(C)=O,> 4 mM (inactive)
23,O=C(O)C1CN2CCC1CC2 (stereo not given),> 4 mM (inactive)
24,O=C1Nc2ccccc2C1C1(O)C(=O)Nc2ccc(F)cc21 (stereo not given),> 4 mM (inactive)

row,Structure (SMILES),Kd
1,CC(=O)NC12CC3CC(CC(O)(C3)C1)C2,> 4 mM (inactive)
2,Cc1cccc(NC(=O)c2ccc(=O)[nH]n2)c1,> 4 mM (inactive)
3,Cc1cc(=O)n(CC(C)C)c(O)c1C#N,> 4 mM (inactive)
4,NCc1ccc2sccc2c1,> 4 mM (inactive)
5,O=C1CCC(=O)N1CN1CCOCC1,> 4 mM (inactive)
6,CC(C)(C#N)O[C@@H]1O[C@H](CO)[C@@H](O)[C@H](O)[C@H]1O,> 4 mM (inactive)
7,CC1=[N+]([O-])C2(N)CCc3c(no[n+]3[O-])C2(O)C1 (stereo not given),> 4 mM (inactive)
8,c1ccc(-n2nnnc2Oc2cccc3cccnc23)cc1,> 4 mM (inactive)
9,CN(Cc1nc2ccccc2n1C)C(=O)c1cccs1,> 4 mM (inactive)
10,Oc1ccc(C(=S)N2CCCCC2)cc1Cl,> 4 mM (inactive)
11,Nc1ccc2c(c1)N1CCN=C1S2,> 4 mM (inactive)
12,CS(=O)(=O)N1CCN(c2ccccc2F)CC1,> 4 mM (inactive)
13,O=c1c(O)c(-c2ccccc2)oc2ccccc12,> 4 mM (inactive)
14,Nc1ccc2[nH]ncc2c1,> 4 mM (inactive)
15,OCc1ccc2c(c1)OCO2,> 4 mM (inactive)
16,O=C(Nc1ccccc1F)c1ccncc1,> 4 mM (inactive)
17,O=C(O)C1CSC(c2cccnc2)N1 (stereo not given),> 4 mM (inactive)
18,O=C1NC(=O)C(=Cc2cccs2)C(=O)N1,> 4 mM (inactive)
19,O=C(c1ccc(F)cc1)N1CCOCC1,> 4 mM (inactive)
20,O=C1NC(=S)N/C1=C\c1ccccc1,> 4 mM (inactive)
21,NC(=O)CCn1c(=O)oc2ccccc21,> 4 mM (inactive)
22,Nc1ccc(S(=O)(=O)Nc2ccc(F)cc2F)cc1,> 4 mM (inactive)
23,COc1cccc(C(=O)N2CCOCC2)c1,> 4 mM (inactive)
24,CC1=C(C(N)=O)C(c2ccco2)C(C(N)=O)=C(C)N1,> 4 mM (inactive)
